In the supplement of paper PMC4862054:

How the values were obtained:
Conditions in all cases: incubation time: 72 h
[1] = system: BT-474; test: normalised response (% of control), CellTox Green; higher = less cell death (100 = DMSO, 0 = benzethonium chloride kill control)
Method in brief: (§1)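 Every value is a normalised signal taken at one concentration of a dilution series. Compound was placed in 384-well plates at 5 concentrations in 10-fold steps over a compound-specific 10,000-fold range, and 20 µl of breast cancer cell suspension was seeded onto it. After 72 h, CellTox Green fluorescence (485/520 nm) was measured first and CellTiter-Glo luminescence second, following 10 min at room temperature. Each plate was scaled to 0.1 % DMSO (100) and a positive kill control (0).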

[2] = system: MDA-MB-468; test: as above
Method in brief: as §1

[3] = system: MFM-223; test: as above
Method in brief: as §1

[4] = system: CAL-51; test: as above
Method in brief: as §1

[5] = system: CAL-85-1; test: normalised viability (% of control), CellTiter-Blue; higher = more viable cells (about 100 = DMSO control)
Experimental: (§2)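 DSRT, CellTiter-Blue viability, 72 h incubation. Signal is normalised to DMSO and benzethonium chloride controls. Value is the normalised response at dose 7.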

[6] = system: HDQ-P1; test: as above
Experimental: as §2

[7] = system: CAL-148; test: as above
Experimental: as §2

[8] = system: DU-4475; test: as above
Experimental: as §2

[9] = system: MDA-MB-453; test: as above
Experimental: as §2

[10] = system: CAL-51; test: as above
Experimental: as §2

[11] = system: BT-474; test: drug sensitivity score (DSS), CellTiter-Blue viability (DSS (AUC-based score)); higher = stronger viability inhibition; extreme values may be limits of the assay
Experimental: (§3)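 DSRT with the CellTiter-Blue (resazurin reduction) viability readout, fluorescence 560/590 nm, 72 h incubation. Plates were normalised to DMSO and benzethonium chloride controls. DSS is computed from the area under the fitted dose-response curve (5 or 9 concentrations).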

[12] = system: HCC1599; test: as above
Experimental: as §3

[13] = system: MDA-MB-468; test: as above
Experimental: as §3

[14] = system: Hs578T; test: as above
Experimental: as §3

[15] = system: CAL-85-1; test: as above
Experimental: as §3

[16] = system: HDQ-P1; test: as above
Experimental: as §3

[17] = system: MDA-MB-231; test: as above
Experimental: as §3

[18] = system: CAL-148; test: as above
Experimental: as §3

[19] = system: DU-4475; test: as above
Experimental: as §3

[20] = system: HCC1937; test: as above
Experimental: as §3

[21] = system: MDA-MB-436; test: as above
Experimental: as §3

[22] = system: HCC1143; test: as above
Experimental: as §3

[23] = system: SK-BR-3; test: as above
Experimental: as §3

[24] = system: CAL-120; test: as above
Experimental: as §3

[25] = system: MDA-MB-453; test: as above
Experimental: as §3

[26] = system: CAL-51; test: as above
Experimental: as §3

| Compound | normalised response [1] | normalised response [2] | normalised response [3] | normalised response [4] | normalised viability [5] | normalised viability [6] | normalised viability [7] | normalised viability [8] | normalised viability [9] | normalised viability [10] | drug sensitivity score [11] | drug sensitivity score [12] | drug sensitivity score [13] | drug sensitivity score [14] | drug sensitivity score [15] | drug sensitivity score [16] | drug sensitivity score [17] | drug sensitivity score [18] | drug sensitivity score [19] | drug sensitivity score [20] | drug sensitivity score [21] | drug sensitivity score [22] | drug sensitivity score [23] | drug sensitivity score [24] | drug sensitivity score [25] | drug sensitivity score [26] |
| --- | --- | --- | --- | --- | --- | --- | --- | --- | --- | --- | --- | --- | --- | --- | --- | --- | --- | --- | --- | --- | --- | --- | --- | --- | --- | --- |
| CC(C)C(=O)Nc1ccc([N+](=O)[O-])c(C(F)(F)F)c1 [Flutamide] (1000 nM) | 99.5% | 144% | 99% | 98.4% | 84.2% | 101% | 104% | 102% | 90.1% | 115% |  |  |  |  |  |  |  |  |  |  |  |  |  |  |  |  |
| COc1cc2c(Oc3ccc(NC(=O)C4(C(=O)Nc5ccc(F)cc5)CC4)cc3F)ccnc2cc1OCCCN1CCOCC1 [Foretinib] (100 nM) | 100% | 97.5% | 101% | 94.2% | 84.7% | 77.3% | 92.8% | 100% | 91.1% | 85.4% |  |  |  |  |  |  |  |  |  |  |  |  |  |  |  |  |
| C[C@@H]1C[C@H]2[C@@H]3CCC4=CC(=O)C=C[C@]4(C)[C@@]3(F)[C@@H](O)C[C@]2(C)[C@@]1(O)C(=O)CO [Dexamethasone] |  |  |  |  |  |  |  |  |  |  | 0 | 0 | 0 | 0 | 0 | 0 | 0 | 0 | 0 | 0 | 0 | 0 | 0 | 0 | 7.98 | 0 |
| Cc1c(N)nc([C@H](CC(N)=O)NC[C@H](N)C(N)=O)nc1C(=O)N[C@H](C(=O)N[C@H](C)[C@@H](O)[C@H](C)C(=O)N[C@H](C(=O)NCCc1nc(-c2nc(C(=O)NCCC[S+](C)C)cs2)cs1)[C@@H](C)O)[C@@H](OC1OC(CO)C(O)C(O)C1OC1OC(CO)C(O)C(OC(N)=O)C1O)c1cnc[nH]1 (stereo partly specified) [Bleomycin] (1000 nM) | 98.2% | 138% | 88% | 44.5% | 94.5% | 88% | 105% | 98.9% | 94.3% | 105% |  |  |  |  |  |  |  |  |  |  |  |  |  |  |  |  |
| O=C(O)CC[C@H]1CC[C@@](c2cc(F)ccc2F)(S(=O)(=O)c2ccc(Cl)cc2)CC1 [MK-0752] (100 nM) | 102% | 165% | 94% | 116% | 102% | 110% | 122% | 122% | 109% | 101% |  |  |  |  |  |  |  |  |  |  |  |  |  |  |  |  |
| Cc1cc2c(F)c(Oc3ncnn4cc(OC[C@@H](C)O)c(C)c34)ccc2[nH]1 [Brivanib] |  |  |  |  |  |  |  |  |  |  | 0 | 0 | 0 | 0 | 0 | 0 | 0 | 0 | 0 | 0 | 0 | 0 | 0 | 0 | 0 | 0 |
| CCCCCOC(=O)Nc1nc(=O)n([C@@H]2O[C@H](C)[C@@H](O)[C@H]2O)cc1F [Capecitabine] |  |  |  |  |  |  |  |  |  |  | 0 | 0 | 0 | 0 | 0 | 0 | 0 | 0 | 0 | 0 | 0 | 0 |  | 0 |  | 0 |
| COc1cc2c(N3CCN(C(=O)Nc4ccc(OC(C)C)cc4)CC3)ncnc2cc1OCCCN1CCCCC1 [Tandutinib] (100 nM) | 96.3% | 134% | 100% | 96.4% | 100% | 112% | 101% | 117% | 97.6% | 107% |  |  |  |  |  |  |  |  |  |  |  |  |  |  |  |  |
| CC[C@@H]1C(=O)N(C)c2cnc(Nc3ccc(C(=O)N[C@H]4CC[C@H](N5CCN(CC6CC6)CC5)CC4)cc3OC)nc2N1C(C)C [Volasertib] (100 nM) | 94.5% | 85.1% | 53.5% | 46.4% | 42% | 51.7% | 23.4% | 21% | 24.5% | 15.7% |  |  |  |  |  |  |  |  |  |  |  |  |  |  |  |  |
| C[C@]12C=CC(=O)C=C1CC[C@@H]1[C@@H]2C(=O)C[C@@]2(C)[C@H]1CC[C@]2(O)C(=O)CO [Prednisone] (1000 nM) | 103% | 83.2% | 84.2% | 112% | 94.2% | 122% | 101% | 96.3% | 96.7% | 93.1% |  |  |  |  |  |  |  |  |  |  |  |  |  |  |  |  |
